Assay results from ChEMBL document CHEMBL1153899, “Discovery of benzothiazole derivatives as efficacious and enterocyte-specific MTP inhibitors” (Bioorg Med Chem Lett, 2009).
pIC50: −log10 of the molar value. The source made the active and inactive calls. No cut-off for these calls is given here.

What was measured:
[1] = Inhibition of MTP from dog liver microsomes by scintillation counting; parameters: species or system Canis lupus familiaris, Microsome
[2] = system: Mus musculus; assay: Decrease in plasma triglyceride level in […] C57BL/6 mouse at 10 mg/kg, po daily for 3 days measured after 6 hrs; format: functional
[3] = system: HepG2; assay: Inhibition of apoB secretion in human HepG2 cells after 40 hrs by ELISA; format: functional, cell-based; settings: HepG2, 40 h
[4] = system: Mus musculus; assay: Increase in peptide YY level in 3-day high fat diet fed C57BL/6 mouse at 10 mg/kg, po daily for 3 days; format: functional, organism-based; parameters: dose 10 mg/kg
[5] = system: Mus musculus; assay: Decrease in total food intake in 3-day high fat diet fed C57BL/6 mouse at 10 mg/kg, po daily for 3 days; format: functional
[6] = system: Mus musculus; assay: Decrease in body weight in […] at 10 mg/kg, po daily for 3 days; format: functional, C57BL/6

pIC50 [1] | pIC50 [3] | SMILES | Activity [2] | Activity [4] | Activity [5] | Activity [6]
8.34 | 8.40 | CN(Cc1ccc(F)cc1)C(=O)[C@@H](NC(=O)c1nc2ccc(NC(=O)c3ccccc3-c3nc(C(C)(C)C)cs3)cc2s1)c1ccccc1 | inactive | inactive | inactive | inactive
7.89 | 8.38 | CN(Cc1ccc(F)cc1)C(=O)[C@@H](NC(=O)c1nc2ccc(NC(=O)c3ccccc3-c3cn4ccccc4n3)cc2s1)c1ccccc1 | inactive | inactive | inactive | inactive
– | 7.46 | CC(C)(C)c1ccc(-c2ccccc2C(=O)Nc2ccc3nc(C(=O)N[C@@H](C(=O)N4CCCC4)c4ccccc4)sc3c2)cc1 | – | – | – | –
8.02 | 8.19 | CCCCN(C)C(=O)[C@@H](NC(=O)c1nc2ccc(NC(=O)c3ccccc3-c3ccc(C(C)(C)C)cc3)cc2s1)c1ccccc1 | – | – | – | –
